In patent US20070191324A1, “Methods for treatment or prophylaxis of aldosterone-mediated pathogenic effects in a subject using an epoxy-steroidal aldosterone antagonist” (priority 1999, published 2007):
Like-named read-outs stand apart in the source and are kept apart here.

Columns and labels:
[1] = tested on: aldosterone/salt uninephrectomized rats; test: Myocardial injury in aldosterone/salt uninephrectomized rats (Example A-6); type: in vivo, Sprague Dawley rats; details: eplerenone in chow 100 mg/k/d; aldosterone 0.75 ug/hr, 1% NaCl
Method: The rats were then implanted with Alzet mini pump that subcutaneously delivered either aldosterone (0.75 ug/hr) or vehicle. […] Blood pressure was measured by radio telemetry units implanted in abdominal aorta. Rats were sacrificed for examination of the hearts.

human subject = test: Blood pressure, plasma renin activity and serum aldosterone as a function of eplerenone dose (FIG. 10-12); type: in vivo; details: increasing doses
Text: For example, appropriate dosing can be determined by monitoring systolic blood pressure. […] Accordingly, subjects can be treated with doses of one or more epoxy-steroidal compounds according to the present invention by increasing doses of such compounds in a step-wise manner until a minimal levels of systolic blood pressure decrease are achieved while, at the same time, also maintaining serum levels of potassium within the normal range. Similarly, appropriate dosing can also be determined by monitoring diastolic blood pressure. […] Accordingly, subjects can be treated with doses of one or more epoxy-steroidal compounds according to the present invention by increasing doses of such compounds in a step-wise manner until a minimal level of diastolic blood pressure change are achieved while, at the same time, also maintaining serum levels of potassium within the normal range. Appropriate dosing can also be determined by monitoring plasma renin activity. […] Accordingly, subjects can be treated with doses of one or more epoxy-steroidal compounds according to the present invention by increasing doses of such compounds in a step-wise manner until the desired level of plasma renin activity is achieved while, at the same time, maintaining serum levels of potassium within the normal range. Appropriate dosing can also be determined by monitoring serum aldosterone levels. […] Accordingly, subjects can be treated with doses of one or more epoxy-steroidal compounds according to the present invention by increasing doses of such compounds in a step-wise manner until the desired level of serum aldosterone is achieved while, at the same time, also maintaining serum levels of potassium within the normal range.

[2] = tested on: patients with low-renin hypertension; test: Eplerenone versus losartan in low-renin hypertension, 16 weeks (Examples A-16, D-5); type: in vivo, human
Text: Patients will continue on therapy until Week 16. Table […] illustrates the above-described dosing scheme. […] Plasma renin will be determined at screening; serum aldosterone, plasma renin, and plasma cortisol will be determined at Weeks 0, 8, and 16. […] A 12-lead electrocardiogram will be done at Weeks 0 and 16. Physical examinations will be completed at screening and at Week 16. […] Secondary measures of efficacy will be the following: […] Study design is illustrated in FIG. D-16. […] At Weeks 8 and 16, BP, RAAS hormone profile, and safety were assessed.

[3] = Single dose pharmacokinetics, Japan and Ex-Japan trials (Example A-11); type: in vivo, human; details: for Vd/F: male, human, in vivo, oral, single dose, least squares mean, read-out: Vss/F
Method: A total of 76 European subjects and 38 Japanese subjects participated in the single and multiple dose tolerability and food effect trials. Three of the studies were Ex-Japan studies and included doses ranging from 10 mg to 1000 mg. The other two studies were conducted in Japan and included doses ranging from 50 mg to 600 mg.
The […] trials included (i) a single dose tolerability trial, and (ii) a multiple dose tolerability trial, and (iii) a food effect study.
Both single dose and multiple dose tolerability trials were conducted in Japan utilizing healthy male Japanese subjects. […] Six subjects who received the 100 mg dose also participated in the food effect treatment arm of the single dose tolerability trial.
Combining single dose fasting pharmacokinetic data from all five studies, an analysis of variance with factors for country (Japan, Ex-Japan), study nested within country, and dose were performed on the dose-normalized Cmax and AUC values to assess the effect of country (population). Dose normalization was done to the lowest dose (10 mg for single dose, 100 mg for multiple dose). In the absence of intravenous data, the distribution volume (V/F) and clearance (CL/F) parameters are represented as the apparent values and are normalized to 70 kg of body weight. There were no statistically significant differences between the Japan and Ex-Japan trials in any of the pharmacokinetic parameters analyzed.
No statistically significant differences were noted between the Japan and ex-Japan population for any of the derived parameters evaluated.
Each panel consisted of six subjects who were given eplerenone and two subjects who were given placebo.

hypertensive patients = test: Eplerenone vs. amlodipine, ambulatory blood pressure monitoring, 16 weeks (Example D-12); type: in vivo, human
Text: This was a multicenter, randomized, double-blind, active-controlled, placebo run-in, parallel group study. […] If symptomatic hypotension occurred at Week 2 or Weeks 4, 6, 8, or 12 and the patient was on the lowest dose level (Dose Level 1), the patient was to be withdrawn. Study assessments at protocol-specified timepoints included BP, heart rate, ABPM, Holter recording, clinical laboratory analyses including serum potassium levels, concomitant medications. Throughout the study, safety was assessed by routine clinical laboratory analyses, vital signs, physical examinations, 12-lead ECG, and monitoring of adverse events.

[4] = tested on: patients with mild-to-moderate hypertension; test: Long-term open-label safety and efficacy study of eplerenone (Example D-11); type: in vivo, human; parameters: mean change from baseline SBP: unit not given beside the values; details: for Change Mean seated DBP, Baseline to End of Treatment / Change Mean seated SBP, Baseline to End of Treatment: Responders, ITT
Method: This 6- to 16-month, open-label, single-group, titration-to-effect study assessed the safety, tolerability, and efficacy of EPL in patients with mild-to-moderate hypertension.
Patients (n=586) with DBP ≧90 mmHg and <110 mmHg, or SBP ≧140 mmHg and <180 mmHg, received EPL 50 mg QD. If BP was uncontrolled at Weeks 2 or 4 (DBP ≧90 mmHg or SBP ≧140 mmHg), EPL was up-titrated to 100 mg QD and, if necessary, 200 mg QD. If BP remained uncontrolled at any time from Week 6 to the end of Month 3, a second antihypertensive medication of the investigator's choice was added. Safety, tolerability, and BP were assessed at protocol-specified times.

[5] = Week 8 (monotherapy), EPL 100-200 mg QD, LOS 50-100 mg QD
[6] = Week 16, after allowed addition of HCTZ
[7] = EPL 200 mg plus add-on therapy (N=172)
[8] = subgroup 50, 100, 200 mg QD + Ahyp (add-on therapy)
[9] = final dose level EPL 50 mg (N=68)
[10] = final dose level EPL 100 mg (N=89)
[11] = final dose level EPL 200 mg (N=104)

## COC(=O)[C@@H]1CC2=CC(=O)CC[C@]2(C)[C@@]23O[C@@H]2C[C@@]2(C)[C@@H](CC[C@@]24CCC(=O)O4)[C@H]13 [Eplerenone, Pregn-4-ene-7,21-dicarboxylic acid, 9,11-epoxy-17-hydroxy-3-oxo-, γ-lactone, methyl ester, (7α, 11α, 17β)-]
[1]
  cardiac histopathologic damage: prevents the histopathologic damage
Human subject; FIG. 10
  systolic blood pressure as a function of dose: decreased systolic blood pressure
Human subject; FIG. 11
  diastolic blood pressure as a function of dose: decreased diastolic blood pressure
Human subject; FIG. 12
  plasma renin activity as a function of dose: increased levels of plasma renin activity
  serum aldosterone as a function of dose: increased levels of serum aldosterone
[2]; 16 weeks
  cumulative percentage of patients requiring HCTZ add-on therapy: 32.5%
[2]; Week 8
  increase in active renin levels: +50.1%
  increase in serum aldosterone levels: +74.7%
[2]; [5]
  mean change from baseline in DBP: −9.3 mmHg
  mean change from baseline in SBP: −15.8 mmHg
[2]; Week 16
  increase in active renin levels: +73.0%
  increase in serum aldosterone levels: +89.8%
[2]; [6]
  mean change from baseline in DBP: −10.8 mmHg
  mean change from baseline in SBP: −18.3 mmHg
[2]; in vivo
  safety and tolerability: safe and well tolerated
[3]; healthy Japanese male subjects, single doses 50-600 mg
  clinical lab abnormalities and adverse events: no adverse events were reported
[3]; Ex-Japan
  Vd/F: 80.6 L
[3]; Japan
  Vd/F: 80.1 L
Hypertensive patients; eplerenone 50-200 mg, amlodipine 2.5-10 mg, 16 weeks
  anti-hypertensive effect, mean 24 hour systolic ABPM: comparable
Hypertensive patients; in vivo
  safety and tolerability: safe and well tolerated
[4]; 261/582
  patients responding to eplerenone monotherapy: 44.8%
[4]; [7]
  mean change from baseline DBP: −14.6
  mean change from baseline SBP: −24.9
[4]; subgroup 50 mg QD
  Change Mean seated DBP, Baseline to End of Treatment: −10.6 mmHg
  Change Mean seated SBP, Baseline to End of Treatment: −15.9 mmHg
[4]; subgroup 50, 100 mg QD
  Change Mean seated DBP, Baseline to End of Treatment: −12.2 mmHg
  Change Mean seated SBP, Baseline to End of Treatment: −18.1 mmHg
[4]; subgroup 50, 100, 200 mg QD
  Change Mean seated DBP, Baseline to End of Treatment: −12.5 mmHg
  Change Mean seated SBP, Baseline to End of Treatment: −19.1 mmHg
[4]; [8]
  Change Mean seated DBP, Baseline to End of Treatment: −14.6 mmHg
  Change Mean seated SBP, Baseline to End of Treatment: −24.9 mmHg
[4]; doses of 50, 100, and 200 mg
  gynecomastia: 0.7%
[4]; [9]
  mean change from baseline DBP: −10.6
  mean change from baseline SBP: −15.9
[4]; [10]
  mean change from baseline DBP: −12.2
  mean change from baseline SBP: −18.1
[4]; [11]
  mean change from baseline DBP: −12.5
  mean change from baseline SBP: −19.1
[4]; in vivo
  patients with treatment-emergent AEs of probable relationship to study medication: 8.4%
  patients with treatment-emergent AEs of uncertain relationship to study medication: 21.5%
[4]; of 582 patients
  responders at the end of treatment, number: 433 patients
[4]; of 582 patients, EPL 50-200 mg QD with or without add-on
  responders (seDBP<90 mmHg or ≧10 mmHg decrease from Baseline) at the end of treatment: 74.3%
[4]; primarily those receiving EPL 200 mg
  patients with elevated K+ levels: 2.4%
[4]; up to 14 months, 50-200 mg daily alone or 200 mg/day with another antihypertensive agent
  safety and tolerability: safe and well tolerated
